Assay results as given in patent US20110015241A1, “SUBSTITUTED HETEROCYCLES AND USE THEREOF” (BAYER SCHERING PHARMA AKTIENGESELLSCHAFT, priority 2006, published 2011).
Structures can show the parent of a compound that is named as a salt.

Biological target: T1, human factor Xa (Homo sapiens, UniProt P00742)
T1 construct: factor Xa, which is formed from the proenzyme factor X
Assay: Determination of the factor Xa inhibition (fluorogenic substrate Boc-Ile-Glu-Gly-Arg-AMC)
Format: biochemical
Details: 15 min preincubation at 22° C., substrate 5 μmol/l, pH 7.4, fluorescence 360/460 nm
Experimental: In order to determine the factor Xa inhibition of the substances listed above, a biochemical test system is set up, in which the conversion of a factor Xa substrate is used to determine the enzymatic activity of human factor Xa. Factor Xa cleaves aminomethylcoumarin, whose fluorescence is measured, from the peptidic substrate. The determinations are carried out in microtitre plates.
Substances to be tested, in various concentrations, are dissolved in dimethyl sulphoxide and incubated for 15 min at 22° C. with human Factor Xa ([…] dissolved in 50 mmol/l of Tris buffer [C,C,C-tris(hydroxymethyl)aminomethane], 100 mmol/l NaCl, 0.1% BSA [bovine serum albumin], pH 7.4). The substrate (5 μmol/l of Boc-Ile-Glu-Gly-Arg-AMC from Bachem) is then added. After an incubation time of 30 min, the sample is excited at a wavelength of 360 nm, and the emission at 460 nm is measured. The measured emissions of the test batches with test substance are compared to the control batches without test substance (only dimethyl sulphoxide instead of test substance in dimethyl sulphoxide), and IC50 values are calculated from the concentration/activity relationships.

T1 sequence (P00742 235-488 limits assumed): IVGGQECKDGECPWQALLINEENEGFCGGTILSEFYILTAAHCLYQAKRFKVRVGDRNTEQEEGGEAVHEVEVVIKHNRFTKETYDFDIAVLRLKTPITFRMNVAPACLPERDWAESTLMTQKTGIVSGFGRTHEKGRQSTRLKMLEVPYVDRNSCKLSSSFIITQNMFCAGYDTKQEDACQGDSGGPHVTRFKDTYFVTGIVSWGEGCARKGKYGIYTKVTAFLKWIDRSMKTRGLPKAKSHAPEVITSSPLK
T1 sequence (P00742 41-179 partner limits assumed): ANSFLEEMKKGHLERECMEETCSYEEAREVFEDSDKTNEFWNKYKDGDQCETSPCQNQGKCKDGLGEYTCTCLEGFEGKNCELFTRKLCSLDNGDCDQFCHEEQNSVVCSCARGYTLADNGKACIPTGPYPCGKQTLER

Row | IC50 | SMILES
1 | 1.4 nM | N=C1OCCN1c1ccc(-n2cc(CNC(=O)c3ccc(Cl)s3)c(-c3ccccc3)n2)cc1 [Example 2, 5-Chloro-N-({1-[4-(2-imino-1,3-oxazolidin-3-yl)phenyl]-3-phenyl-1H-pyrazol-4-yl}methyl)thiophene-2-carboxamide hydrochloride]
2 | 7.9 nM | N=C1OCCN1c1ccc(C2=NOC(CNC(=O)c3ccc(Cl)s3)C2)cc1 (centres unmarked) [Example 1, 5-Chloro-N-({3-[4-(2-imino-1,3-oxazolidin-3-yl)phenyl]-4,5-dihydroisoxazol-5-yl}methyl)thiophene-2-carboxamide]
